{"source": "patent US20260098863A1", "about": "“Tension-Activated Cell Tagging (TaCT)” (Emory University, priority 2022, published 2026)", "key": {"NIH3T3 cells [1]": {"system": "NIH3T3 cells", "assay": "TaCT signal by flow cytometry, NIH3T3 cells on TaCT substrates", "format": "cell-based", "description": "FIG. 1 provides a scheme of tension-activated cell tagging (TaCT). TaCT is based on 3′ and 5′ end mechanical pulling of a DNA duplex that leads to dehybridization. The stability of a dsDNA 24 mer was evaluated as a function of applied force generated using oxDNA simulation with a loading rate of 2.81×10^3 nm/s. The exponential moving average (EMA) indicates a 41 pN dehybridization transition. Flow cytometry histograms of NIH3T3 cells cultured on TaCT substrates as well as control surfaces with (−)cholesterol, (−)RGD, and (+)LatB were obtained.\nNIH3T3 cells were seeded onto the TaCT substrates, allowed to spread, and collected by gentle scraping. The TaCT signal was then measured by flow cytometry. Probes lacking RGD, probes lacking cholesterol, as well as full TaCT probes cells treated with Lat B were used as negative controls. […] Background tagging of cells due to cell spreading and proximity to the surface leads to negligible TaCT signal."}, "[2]": {"system": "mouse embryonic fibroblasts", "assay": "fluorescence microscopy of force-induced DNA duplex peeling under mouse embryonic fibroblasts", "format": "cell-based", "description": "FIG. 4A illustrates Lat B inhibition of cells. […] RICM and Cy3B microscopy images were obtained from MEF cells incubated on peeling probe substrate after early Lat B treatment. Cells were treated with 20 μM Lat B after 15 min of plating on the substrate and imaged after 45 min of incubation.\nFIG. 4B illustrates that when integrin force signals are already generated on peeling probe substrate, if the force transmission is terminated by late Lat B treatment, with additional BHQ2 peeling strand, the peeling probe can rehybridize to the duplex form. RICM and raw Cy3B microscopy images were obtained of MEF cells treated with 20 μM Lat B 50 min after seeding. The tension signal remained after 10 min of Lat B treatment and diminished after the addition of excess BHQ2 peeling strand.\nThe Cy3B signal was primarily localized to the cell edge, consistent with the distribution of focal adhesions (FAs) and accumulated as a function of time. The growth of Cy3B signal corresponded to the loss of Atto647N signal and confirmed the force-induced peeling mechanism. This mechanism can generate high quality maps of integrins forces independent of cholesterol conjugation to the probe. […] The observed tension signal colocalized with markers of FAs such as vinculin and phosphorylated focal adhesion kinase (FAK pY397), as well as actin stress fibers, confirming that forces were primarily transmitted by integrins within FAs. The peeling signal mirrors that of the turn-on tension gauge tether (TGT) probes but avoids termination of mechanotransduction which represents an advantage as a molecular force sensor. […] Maps accumulated mechanical events over time."}, "MEF cells [3]": {"system": "MEF cells", "assay": "Y27632 dose-dependent response of TaCT / tension signal in MEF cells", "format": "cell-based, mouse", "settings": "Y27632 pre-treatment", "text": "To showcase that TaCT is an effective method to report cell receptor forces, a Rho-associated protein kinase (ROCK) inhibitor, Y27632, was used to disrupt the force transmission through cytoskeleton and measure the dose-dependent response in MEF cells. Y27632 inhibits ROCK kinases by competing with ATP binding, and further result in decreased myosin activity, destabilization of actin filament and abolished stress formation."}, "[4]": {"biological_target": "Rho-associated protein kinase (ROCK)", "settings": "cited from earlier work"}, "mouse platelets [5]": {"system": "mouse platelets", "assay": "flow cytometry of DNA strand uptake in solution (cholesterol-DNA cell tagging)", "format": "cell-based", "settings": "50 nM, 30 min", "description": "FIG. 5A illustrates a scheme for making flow cytometry measurements of the DNA strands uptake in solution. Mouse platelets were incubated with 50 nM of cholesterol peeling strand, TaCT duplex, load-bearing strand, TaCT duplex lacking RGD, and load-bearing strand lacking RGD in Tyrode's buffer for 30 min and spun down three times to wash away the excess oligos. The association was measured in both Atto647N and Cy3B channels by a flow cytometer.\n(§1) After confirming that DNA peeling consistently maps molecular traction forces, cholesterol-DNA cell tagging for TaCT was investigated. Cholesterol-DNA is contemplated to partition into the plasma membrane of cells. […] The stability of TaCT tags was examined by incubating cholesterol-single stranded DNA with cells, washing, and measuring the loss of DNA as a function of time. Approximately 20-30% of the cholesterol-tethered DNA dissociated at 90 min. Accordingly, the cells were incubated on the surface for 1 h, which allowed for focal adhesion formation and TaCT method to proceed while limiting cholesterol dissociation."}, "MEF cells [6]": {"system": "MEF cells", "assay": "concentration dependent incorporation of cholesterol peeling strand", "format": "cell-based, mouse", "settings": "0, 1, 10, 100 nM, 1 h", "description": "FIG. 5C provides a scheme showing flow cytometry measurements of the concentration dependent incorporation of cholesterol peeling strand. MEF cells were incubated with 0, 1, 10, and 100 nM of cholesterol peeling strand for 1 h. The excess cholesterol peeling strand was washed away by spinning down in PBS three times, and the fluorescence intensity of cells was measured by a flow cytometer.\nLinear relationship between cholesterol strand concentration and cell association was found, R2=0.977.\nas §1"}, "NIH3T3 cells [7]": {"system": "NIH3T3 cells", "assay": "cholesterol peeling strand dissociation from the cell", "format": "cell-based", "settings": "at 90 min after washing", "description": "FIG. 5E provides a scheme showing the measurement of cholesterol peeling strand dissociation from the cell. NIH3T3 cells were incubated with 100 nM cholesterol peeling strand for 30 min and rinsed with PBS 3 times. Cells were divided into 6 aliquots and the remaining cholesterol strand in cells was measured every 30 min for 150 min by flow cytometry.\nThe normalized MFI from 2 replicates was plotted to show the dissociation of cholesterol strand over time in NIH3T3 cells.\nas §1"}, "mouse platelets [8]": {"system": "mouse platelets", "assay": "TaCT signal by flow cytometry, mouse platelets on TaCT surface", "format": "cell-based", "settings": "mouse platelets seeded 30 min", "description": "Experiments were performed to determine whether this strategy works in primary cells. […] When mouse platelets were seeded onto the TaCT surface for 30 min, a loss of Atto647N signal was noted that was coupled with an increase in Cy3B. This confirmed that platelet integrin force transmission was sufficient to mediate DNA peeling with F greater than 41 pN."}, "MEF cells (WT and vin−)": {"system": "MEF cells (WT and vin−)", "assay": "TaCT on co-cultured WT and vinculin null MEF cells, flow cytometry", "format": "cell-based, mouse", "description": "Vinculin is an adaptor protein that localizes to FAs linking the cytoskeleton to adhesion receptors and aids in FA maturation. TaCT was performed on these two cell types separately. The vin− cells were stained with cell tracker dye, CMFDA, before plating onto TaCT substrates. To ensure that the TaCT signal is not due to differential uptake, cholesterol uptake of WT and vin− cells was measured by flow cytometry in parallel with each TaCT assay. WT cells had larger spreading area and produced more tension signal compared to vin− cells in the Cy3B channel. […] Experiments were performed to determine whether this differential tension signal could be detected when the WT and vin− were co-cultured."}, "[9]": {"assay": "FRET efficiency of surface-immobilized TaCT probes", "format": "physicochemical", "text": "In one example, TaCT probe is comprised of a load-bearing strand and a 24mer peeling strand. […] The loading-bearing strand also incorporated an internal Cy3B dye. The complementary peeling strand was designed to release once force (F) is greater than F peel. The peeling strand termini were labeled with Atto647N and cholesterol. The TaCT probes were annealed and immobilized on streptavidin-coated glass slides. At rest, the probe is in the dsDNA form where Cy3B and Atto647N form a FRET pair. When F is greater than F peel, the Atto647N strand peels and dissociates, while the Cy3B dye on the load bearing strand is de-quenched. […] The probe density was measured at 5200 molecules/μm^2 using a quantitative fluorescence calibration, which allows one to convert the Cy3B fluorescence signal to a % peel."}}, "data": [{"compound": "C/C1=C/C(=O)O[C@@H]2C[C@@H](CC[C@H](C)/C=C\\CC1)O[C@@](O)([C@@H]1CSC(=O)N1)C2", "note": "[Lat B, Latrunculin B, reference compound]", "values": [{"measurement": "force positive population", "setting": "NIH3T3 cells [1]; NIH3T3 cells on full TaCT probes, cells treated with Lat B", "result": 3.5, "unit": "%"}, {"measurement": "tension signal changes", "setting": "[2]; Lat B 50 min after seeding (20 μM)", "result": "did not show tension signal changes"}, {"measurement": "peeling signal", "setting": "[2]; cells treated with Lat B (early, 20 μM)", "result": "significantly reduced peeling signal"}]}, {"compound": "C[C@@H](N)[C@H]1CC[C@H](C(=O)Nc2ccncc2)CC1", "note": "[Y27632]", "values": [{"measurement": "IC50", "setting": "MEF cells [3]; Mus musculus, flow cytometry, ROCK inhibitor", "result": 773, "unit": "nM"}, {"measurement": "Cy3B tension signal", "setting": "MEF cells [3]; microscopy", "result": "decreased Cy3B tension signal"}, {"measurement": "literature reported IC50 values", "setting": "[4]", "result": "hundreds of nM to low μM"}]}, {"compound": "Cholesterol-single stranded DNA conjugates: 24 mer peeling strand (SEQ ID NO: 2) labeled with Atto647N and cholesterol (DNA AGTTCTAAGACTTCAGAGCTCACT; DNA, backbone and methylation of C not given here; Atto647N and cholesterol on the termini)", "values": [{"measurement": "effectiveness at tagging cells compared to cholesterol-double stranded DNA conjugates", "setting": "mouse platelets [5]", "result": "approximately 50 fold"}, {"measurement": "membrane-association versus soluble conjugate concentration", "setting": "MEF cells [6]", "result": "linearly proportional"}, {"measurement": "cholesterol-tethered DNA dissociated", "setting": "NIH3T3 cells [7]", "result": "20-30%"}]}, {"compound": "TaCT probe: DNA duplex: RGD/Cy3B/biotin load-bearing strand (SEQ ID NO: 1) and 24mer Atto647N, cholesterol peeling strand (SEQ ID NO: 2) (DNA 1 TTTTTTTTTTAGTGAGCTCTGAAGTCTTAGAACT; DNA 2 AGTTCTAAGACTTCAGAGCTCACT; DNA, backbone and methylation of C not given here; RGD and biotin at the two termini, internal Cy3B, peeling strand Atto647N and cholesterol)", "values": [{"measurement": "Atto647N geometric mean fluorescence intensity (gMFI) increase compared to controls", "setting": "NIH3T3 cells [1]; NIH3T3 cells incubated on TaCT", "result": "greater than 2 fold"}, {"measurement": "Cy3B gMFI", "setting": "NIH3T3 cells [1]; NIH3T3 cells incubated on TaCT compared to controls", "result": "did not change"}, {"measurement": "force positive population", "setting": "NIH3T3 cells [1]; NIH3T3 cells on substrate, 1 h, flow cytometry", "result": 27.6, "unit": "%"}, {"measurement": "force positive population", "setting": "mouse platelets [8]", "result": 13.3, "unit": "%"}, {"measurement": "mechanical events with F greater than 41 pN", "setting": "[2]; equivalent of % peel and probe density", "result": "approximately 47 mechanical events/μm^2"}, {"measurement": "probes peeled under each cell", "setting": "[2]; quantitative microscopy analysis", "result": 0.9, "unit": "%"}, {"measurement": "force positive population", "setting": "MEF cells (WT and vin−); WT MEF cells in mixed population (co-culture)", "result": 24.4, "unit": "%"}, {"measurement": "force positive population", "setting": "MEF cells (WT and vin−); vin− MEF cells in mixed population (co-culture)", "result": 5.2, "unit": "%"}, {"measurement": "Cy3B signal enhancement upon peeling", "setting": "[9]", "result": "greater than 10 fold"}, {"measurement": "FRET efficiency", "setting": "[9]; Cy3B / Atto647N pair in dsDNA form", "result": 93.8, "unit": "%"}]}]}
